Patent publication US9636021B2, “Flavonoid compounds of low toxicity for biological imaging applications” (The University of Akron, priority 2014, dated 2017)

Legend:
zebrafish embryos = experiment: toxicity to labeled zebrafish embryos; type: in vivo, zebrafish (Danio rerio); conditions: morphology and size vs non-labeled control embryos
From the text: (§1) The stable and biocompatible staining property of CDCO enables a long-term visualization method for tracking the development and migration of the YSL.

[1] = molecular target: T1, bovin serum albumin (BSA) (Bos taurus, UniProt P02769); experiment: interaction between CDCO and BSA (absorption, fluorescence, warfarin displacement); type: binding, bovine
T1 construct: purchased Sigma Aldrich (St. Louis, Mo.)
T1 sequence (P02769 25-607): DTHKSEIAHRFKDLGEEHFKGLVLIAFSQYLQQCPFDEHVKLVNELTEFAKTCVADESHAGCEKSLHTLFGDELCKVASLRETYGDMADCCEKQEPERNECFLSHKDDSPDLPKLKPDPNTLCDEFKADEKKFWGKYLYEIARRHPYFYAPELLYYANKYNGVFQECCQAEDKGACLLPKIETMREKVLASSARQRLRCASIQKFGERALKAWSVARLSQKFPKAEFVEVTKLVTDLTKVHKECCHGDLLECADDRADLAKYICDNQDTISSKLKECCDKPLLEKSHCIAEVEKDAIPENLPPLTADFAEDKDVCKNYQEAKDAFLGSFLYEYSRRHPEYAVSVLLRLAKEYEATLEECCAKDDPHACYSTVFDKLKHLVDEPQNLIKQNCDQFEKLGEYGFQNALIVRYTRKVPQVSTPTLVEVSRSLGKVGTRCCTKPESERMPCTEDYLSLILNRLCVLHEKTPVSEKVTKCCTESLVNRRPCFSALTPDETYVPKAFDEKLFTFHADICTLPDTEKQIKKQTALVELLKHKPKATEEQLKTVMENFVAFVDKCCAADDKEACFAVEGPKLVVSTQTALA
From the text: The bovin serum albumin (BSA) as the common protein model was used to investigate the interaction between CDCO and proteins. After addition of one equivalent of BSA, the absorption peak at 385 nm was shifted to 402 nm. With the excitation at 400 nm, the fluorescence intensity of CDCO was enhanced about 2-fold, which was accompanied with a large blue-shift (by about 60 nm) from 560 nm to 500 nm. […] However, when the sample was excited at 570 nm, a red/near-infrared fluorescence peak was detected at 700 nm. In order to determine the location of CDCO on BSA, the displacement of CDCO was carried out by addition of warfarin, which is known to strongly bind to the warfarin binding site in Domain II A of BSA. […] It is believed that the emission at 750 nm might be related to the complicated charge and energy transfer inside dye-BSA complex.

zebrafish vitellogenin = experiment: interaction between CDCO and zebrafish vitellogenin; type: binding
Description: ^1H NMR and ^13C NMR spectra were obtained using an AVANCE II apparatus from Bruker Corporation (Billerica, Mass.). UV-vis spectra were acquired on an 8453 diode-array spectrometer from Hewlett-Packard (Palo Alto, Calif.). Fluorescence spectra were measured by RF-5301 PC spectrometer from Shimadzu Corporation (Kyoto, Japan). Electrospray ionization (ESI) mass spectra were acquired with a Synapt HDMS quadrupole/time-of-flight (Q/ToF) mass spectrometer from Waters Corporation (Milford, Mass.). All the solvents for the fluorescence experiments were analytic grade, which were purchased from Fisher Scientific (Waltham, Mass.) and used without further purification. Bovine serum albumin was purchased from Sigma Aldrich (St. Louis, Mo.). Zebrafish vitellogenin standard was purchased from Cayman Europe Biosense Laboratories (No. V01008301). The fluorescence imaging was obtained by X-Cite™ Series 120Q fluorescence microscope from Lumen Dynamics. For the blue channel filter: excitation 365 nm, beam splitter FT 395 nm, emission 445/50 nm. For the green channel filter: excitation 450-490 nm, beam splitter FT 510 nm, emission 515-565 nm. For the red channel filter: excitation 587/25 nm, beam splitter FT 605 nm, emission 647/70 nm.
Zebrafish embryos at 16 hours post fertilization (hpf) were initially used to study the CDCO's stain ability. […]

[2] = system: yolk syncytial layer (YSL) of zebrafish embryos; experiment: fluorescence stability and leakage of CDCO in zebrafish embryos; type: in vivo, zebrafish (Danio rerio); conditions: 5 hpf and 18 hpf embryos, 10 μM 30 min, washed, 1 hour in E3 medium
Description: Stability is one of the most important criteria for developing fluorescent imaging agents for living organisms, especially for tracking highly dynamic structures like the YSL.
as §1
For the example represented by FIGS. 9-12, the 4.5 hpf and 17.5 hpf zebrafish embryos were firstly incubated in an E3 medium containing 10 μM CDCO and 0.2% DMSO for 0.5 h, then were washed with E3 medium, followed by incubating in the E3 medium for 1 hour.

[3] = system: yolk syncytial layer (YSL) of zebrafish embryos; experiment: fluorescence staining of zebrafish embryos and larvae; type: in vivo, zebrafish (Danio rerio)
Description: Zebrafish embryos at 16 hours post fertilization (hpf) were initially used to study the CDCO's stain ability. A developing zebrafish body is normally covered by chorion and enveloping layer (EVL), which prevent dye molecules permeating into the fish body. In this example, 0.2% DMSO with 10 μM CDCO was infused to the E3 medium to decrease the barrier function of the zebra fish chorion without damaging the fish embryos' structural integrity. […] Thus, it is believed that CDCO selectively stained the YSL region.
To investigate the location of CDCO labeling, zebra fish embryos at nine representative stages of early development were incubated with 10 μM CDCO for 30 minutes at 28.5° C., respectively (FIGS. 3-8). The YSL is initially generated by the collapse/fusion of marginal blastomeres with the yolk cell, and then a thin ring of YSL nuclei forms in front of blastoderm margin at high stage.
The YSL structure can persist on the edge of yolk cell until larval stages. […] This YSL-imaging method can selectively stain the YSL structure from its initial formation, to the dynamic epiboly, and finally to the disappearance of YSL, thus representing a promising tracking agent for zebrafish embryonic development studies.
Wild-type zebrafish embryos were collected and maintained as described in The Zebrafish Book by Monte Westerfield, which is incorporated herein by reference. Zebrafish were kept at 28.5° C. and maintained in E3 embryo medium (15 mM NaCl, 0.5 mM KCl, 1 mM MgSO4, 1 mM CaCl2, 0.15 mM KH2PO4, 0.05 mM Na2HPO4, 0.7 mM NaHCO3, 10^−5% methylene blue; pH 7.5).
For the example represented by FIGS. 1 and 2, 10 μL CDCO stock solution (5 mmol/L CDCO in DMSO) was added into 5 mL E3 medium, then 16 hpf zebra fish embryos were gently transferred to this medium (solution) and incubated at 28.5° C. for 30 min. The dyes which stick to the chorion of the embryos were washed away with E3 medium before imaging by fluorescence microscopy.
For the example represented by FIGS. 3-8, the zebra fish embryos at 2.5 hpf, 4.5 hpf, 6.5 hpf, 7.5 hpf, 8.5 hpf, 11.5 hpf and 16.5 hpf were separately handled following the same procedure.
For the example represented by FIG. 22, the staining time required was 1 hour, since the CDCO was more difficult to penetrate through the older fish skin. Before imaging, the zebrafish were treated with tricaine (anesthetic 0.03%).
All the zebrafish were imaged using fluorescent microscopy (Axio. Vert with X-Cite Series 120Q). The blue-CH filter: excitation 365 nm, beam splitter FT 395 nm, emission 445/50 nm. The green-CH filter: excitation 450-490 nm, beam splitter FT 510 nm, emission 515-565 nm. The red-CH filter: excitation 587/25 nm, beam splitter FT 605 nm, and emission 647/70 nm.)

[4] = absorbance and fluorescence spectra in DMSO; type: physicochemical
From the text: The absorbance and fluorescence spectra of compounds 1-6 in dimethyl sulfoxide (DMSO) were investigated and the results are in Table 1.

[5] = molecular target: bovine serum albumin (BSA) (Bos taurus, UniProt P02769); experiment: fluorescence turn-on with BSA in PBS buffer; type: binding; conditions: for detection limit (10% increase in fluorescence emission) / visual recognizable detection limit (S/N above 3:1): BSA; for F(+)/F(−) fluorescence intensity with BSA / without BSA: BSA 1.0 mg/ml; for F(+)/F(−) fluorescence intensity with BSA / without BSA / λabs(+) / λem(+) / λabs(−) / λem(−): 10 μM dye; for F(+)/F(−) fluorescence intensity with BSA / without BSA / fluorescence in the absence of BSA / λabs(+) / λem(+) / λabs(−) / λem(−): 10 mM PBS, 0.5% DMSO, pH 7.4; for fluorescence in the absence of BSA: aqueous buffer; for λabs(+) / λem(+): with BSA 1.0 mg/ml; for λabs(−) / λem(−): without BSA
Sequence of bovine serum albumin (BSA) (P02769 25-607): as above
Description: In the aqueous buffer (0.5% DMSO, 10 mM of PBS, pH=7.4), the BSA binding-induced fluorescence turn-on was so large that it could be easily seen by naked eye. […] The intramolecular charge transfer along the D-A conjugated backbone plays a very important role in the environment-sensitivity of the flavone. All the evidence consistently pointed to the flavone dye entering the hydrophobic site of BSA.
Generally, the detection limit can be defined as the analyte concentration at which a 10% increase in fluorescence emission can be measured.
Therefore, the detection limits of compounds 1-6 were 2.6, 0.14, 0.59, 0.09, 14, and 3.4 μg/mL, respectively. For Off/On type fluorescent sensor, the Signal-to-Noise (S/N) ratio above 3:1 is considered reliable for visual evaluation. The visual recognizable detection limits of compounds 1-6 were calculated as 78, 4.2, 17.7, 2.7, 420, and 102 μg/mL, respectively. The reference range for serum albumin concentration in human blood plasma is approximately 35-50 mg/mL. Even in fish, the concentration of serum albumins can reach 0.5-5 mg/mL. The detection limits of the compounds were much lower than serum albumin concentration, indicating the capability for actual blood sample testing.

dye-BSA complexes = dye-BSA complexes (Bos taurus, UniProt P02769); experiment: photostability of dye-BSA complexes under continuous UV irradiation; type: physicochemical, bovine; conditions: 365 nm, 500 μW/cm2, 10 μM dye, 1.0 mg/mL BSA
Sequence of dye-BSA complexes (P02769 25-607, one chain of several): as the sequence (P02769 25-607) above
Description: The photostability of flavone dyes 1-6 in the presence of BSA was also examined to evaluate the application for long-term imaging. The dye-BSA complexes (10 μM of compounds 1-6, 1.0 mg/mL of BSA in 10 mM PBS buffer containing 0.5% DMSO, pH=7.4) were placed in cuvette cells, then were continuously irradiated under a hand-held UV lamp (λ=365 nm, 500 μW/cm2).

[6] = embryos at early development stages, 10 μM, 30 minutes, 28.5° C.

Φ [4] [%] | λabs [4] [nm] | detection limit (10% increase in fluorescence emission) [5] [µg/mL] | visual recognizable detection limit (S/N above 3:1) [5] [µg/mL] | F(+)/F(−) fluorescence intensity with BSA / without BSA [5] | fluorescence in the absence of BSA [5] | λabs(+) [5] [nm] | λem(+) [5] [nm] | λabs(−) [5] [nm] | λem(−) [5] [nm] | photostability under UV irradiation (dye-BSA complexes) | Compound | also measured
 |  |  |  |  |  |  |  |  |  |  | CN(C)c1ccc(-c2oc3ccccc3c(=O)c2OCc2ccc(CCl)cc2)cc1 [CDCO, 3-(4-(chloromethyl)benzyloxy)-2-(4-(dimethylamino)phenyl)-4H-chromen-4-one] | toxicity to labeled embryos (zebrafish embryos): almost no apparent toxicity; effect of warfarin on red fluorescence ([1]; 5-fold excess of warfarin): did not completely quench the red fluorescence; emission after warfarin displacement ([1]; 5-fold excess of warfarin): 750 nm; absorption peak ([1]; after addition of one equivalent of BSA): 402 nm; absorption peak ([1]; before addition of BSA): 385 nm; fluorescence emission ([1]; excitation 400 nm, before BSA): 560 nm; blue-shift in fluorescence ([1]; excitation 400 nm, on addition of BSA): about 60 nm; fluorescence emission ([1]; excitation 400 nm, with one equivalent of BSA): 500 nm; fluorescence intensity enhancement ([1]; one equivalent of BSA, excitation at 400 nm): about 2 fold; red/near-infrared fluorescence peak ([1]; with BSA, excited at 570 nm): 700 nm; red fluorescence with zebrafish vitellogenin (zebrafish vitellogenin): almost no red fluorescence; fluorescence leakage after washing [2]: no significant fluorescence leakage to blastoderm or somite; staining of 16 hpf zebrafish embryos ([3]; 10 μM, 0.2% DMSO in E3 medium, 30 minutes): stained specifically the yolk-related region in the embryos; localisation of dye during embryo development [3, 6]: consistently confined to the YSL without significant leakage to the blastoderm; staining of the yolk cell [3, 6]: barely stained; fluorescent labeling of 36 hpf embryos ([3]; incubated 1 hour): strong red fluorescence as well as blue and green emission in the yolk region; fluorescent labeling of 7 days old larval zebrafish ([3]; incubated 1 hour, YSL completely absorbed): almost no red fluorescence was observed
11.0 | 404 | 0.59 | 17.7 | 170 | almost no fluorescence | 409 | 552 | 400 | 582 |  | Cc1ccc2oc(-c3ccc(N(C)C)cc3)c(O)c(=O)c2c1 [compound 3, 2-(4-(dimethylamino)phenyl)-3-hydroxy-6-methyl-4H-chromen-4-one] | 
14.1 | 403 | 0.14 | 4.2 | 740 | almost no fluorescence | 415 | 506 | 410 | 555 |  | CCOCc1ccc2oc(-c3ccc(N(C)C)cc3)c(O)c(=O)c2c1 [compound 2, 2-(4-(dimethylamino)phenyl)-6-(ethoxymethyl)-3-hydroxy-4H-chromen-4-one] | 
7.2 | 394 | 3.4 | 102 | 29 |  | 386 | 512 | 373 | 522 | fluorescence quenching | Nc1ccc(-c2oc3ccccc3c(=O)c2O)cc1 [compound 6, 2-(4-aminophenyl)-3-hydroxy-4H-chromen-4-one] | 
5.4 | 363 | 14 | 420 | 7.0 |  | 365 | 514 | 357 | 452 | fluorescence quenching | CC(=O)Nc1ccc(-c2oc3ccccc3c(=O)c2O)cc1 [compound 5, N-(4-(3-hydroxy-4-oxo-4H-chromen-2-yl)phenyl)acetamide] | λem [4]: 505 nm
